pIC50: −log10 of the molar value.

Consider six compounds from patent US20050171353A1, “Piperidine or 8-aza-bicyclo[3.2.1]oct-3-yl derivatives useful as modulators of chemokine receptor activity (especially ccr5)” (priority 2002, published 2005).

Sequence of recombinant human CCR5 receptor (P51681 whole entry): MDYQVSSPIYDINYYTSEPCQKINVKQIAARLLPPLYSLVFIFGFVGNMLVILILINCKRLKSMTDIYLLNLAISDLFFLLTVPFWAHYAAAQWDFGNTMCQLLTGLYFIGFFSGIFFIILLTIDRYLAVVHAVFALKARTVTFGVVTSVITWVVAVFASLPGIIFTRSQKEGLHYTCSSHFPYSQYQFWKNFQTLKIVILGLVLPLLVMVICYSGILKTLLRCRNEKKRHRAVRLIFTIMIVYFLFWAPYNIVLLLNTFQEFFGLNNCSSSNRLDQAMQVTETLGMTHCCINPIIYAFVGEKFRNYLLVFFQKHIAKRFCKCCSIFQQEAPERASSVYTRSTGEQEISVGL

The assay addresses recombinant human CCR5 receptor (Homo sapiens, UniProt P51681). Put plainly: in vitro radioligand binding assay (inhibition of binding of RANTES or MIP-1α), scintillation proximity. The conditions noted are these: membranes from Chinese hamster ovary cells expressing recombinant human CCR5; 0.1 nM iodinated RANTES or MIP-1α; average if tested more than once. How it is done: The ability of compounds to inhibit the binding of RANTES or MIP-1α was assessed by an in vitro radioligand binding assay. Membranes were prepared from Chinese hamster ovary cells which expressed the recombinant human CCR5 receptor. These membranes were incubated with 0.1 nM iodinated RANTES or MIP-1α, scintillation proximity beads and various concentrations of the compounds of the invention in 96-well plates. The amount of iodinated RANTES or MIP-1α bound to the receptor was determined by scintillation counting.
In Table IV the results are presented as Pic50 values.
On the technique in general: Scintillation proximity formats need no separation of bound from free tracer.
For `CCN(C(=O)Cc1ccc(S(C)(=O)=O)cc1)C1CCN(CC[C@H](NC(=O)C2CCC(F)(F)CC2)c2ccccc2)CC1` [Table 1 Compound 1, (S)—N-[1-(3-phenyl-3-[4,4-difluorocyclohexylcarboxyamino]propyl)-4-piperidinyl]-N-ethyl-4-methanesulfonylphenylacetamide], the Pic50 is 8.95.

Regarding `CCN(C(=O)Cc1ccc(S(C)(=O)=O)cc1)C1CCN(CC[C@H](NC(=O)N2CCC(F)CC2)c2ccccc2)CC1` [Table 1 Compound 2, (S)—N-[1-(3-phenyl-3-[4-fluoropiperidin-1-ylcarboxyamino]propyl)-4-piperidinyl]-N-ethyl-4-methanesulfonylphenylacetamide], the Pic50 is listed as 7.68.

With `CCN(C(=O)Cc1ccc(S(C)(=O)=O)cc1)C1CCN(CC[C@H](NC(=O)N2CC[C@@H](F)C2)c2ccccc2)CC1` [Table 1 Compound 3, (S)—N-[1-(3-Phenyl-3-[(R)-3-fluoropyrrolidin-1-ylcarboxyamino]propyl)-4-piperidinyl]-N-ethyl4-methanesulfonylphenylacetamide], the Pic50 is recorded as 7.76.

As usually defined, the pIC50 is −log10 of the IC50, conventionally taken in molar units. With `CCN(C(=O)Cc1ccc(S(C)(=O)=O)cc1)[C@@H]1C[C@H]2CC[C@@H](C1)N2CC[C@H](NC(=O)C1CCC(F)(F)CC1)c1ccccc1` [Table 2 Compound 1, (S)-4,4-difluoro-cyclohexanecarboxylic acid[3-(3-{ethyl-[2-(4-methanesulfonyl-phenyl)-acetyl]-amino}-8-aza-bicyclo[3.2.1]oct-8-yl-exo)-1-phenyl-propyl]-amide], the pIC50 is 8.48.

As for “(S)—N-[1-(3-[3,5-Difluorophenyl]-3-[3,3-difluorocyclobutylcarboxyamino]propyl)-4-piperidinyl]-N-ethyl-4-methanesulfonylphenylacetamide hydrochloride [Table 1 Compound 6]”, the Pic50 was determined as 8.65.

As for “N-[1-((4S)-4-Phenyl-4-[3,3-difluorocyclobutylcarboxyamino]but-2-yl)-4-piperidinyl]-N-ethyl-4-methanesulfonylphenylacetamide hydrochloride [Table 3 Compound 8]”, the Pic50 amounted to 9.15.
